# Assay results taken from US7129073B2, “Regulation of neuronal function through metabotropic glutamate receptor signaling pathways” (The Rockefeller University, priority 2001, dated 2006).
# “Also recorded” adds a separate entry of the source.
# What was measured:
# ER = settings: read-out: IC50, competition with fluorescein-labeled estradiol for binding to ER; FP-based assay; cited from earlier work
# [1] = tested on: voltage-dependent Ca2+ channels; experiment: whole-cell recordings of voltage-dependent Ca2+ channels in dissociated neostriatal neurons; type: cell-based, mouse; settings: CK1–7 100 μM, butyrolactone 25 μM (FIG. 6)
# Method: Neostriatal neurons from 3- to 4-week-old mice were acutely dissociated by using procedures similar to those disclosed in Eberwine et al. (1995, Prog. Brain Res. 105:117–126). Whole-cell current recordings used standard voltage-clamp techniques. The internal solution consisted of 180 mM N-methyl-D-glucamine, 40 mM Hepes, 4 mM MgCl2, 0.5 mM 1,2-bis(2-aminophenoxy)ethane-N,N,N′,N′-tetraacetate, 12 mM phosphocreatine, 2 mM Na2ATP, 0.2 mM Na3GTP, 0.1 mM leupeptin (pH 7.2–7.3), 265–270 mosm/liter. The external solution consisted of 135 mM NaCl, 20 mM CsCl, 1 mM MgCl2, 10 mM Hepes, 0.001 mM tetrodotoxin, 5 mM BaCl2, 10 mM glucose (pH 7.3), 300–305 mosm/liter. Recordings were obtained with an Axon Instruments 200B patch clamp amplifier that was controlled and monitored with an IBM PC running PCLAMP™ (v. 8) with a DigiData 1320 series interface (Axon Instruments, Foster City, Calif.). Electrode resistances were typically 2–4 MΩ in the bath. After seal rupture, series resistance (4–10 MΩ) was compensated (70–90%) and periodically monitored. Drugs were applied with a gravity-fed “sewer pipe” system. The array of application capillaries was positioned 250 μm from the cell under study. Solution changes were effected by altering the position of the array with a DC drive system controlled by a microprocessor-based controller (Newport-Klinger, Irvine, Calif.). Data analyses were performed with AXOGRAPH™ (Axon Instruments), […]™ (Albeck Software, Reading, Pa.), and […]™ (Abacus Concepts, Berkeley, Calif.).
# [2] = tested on: Ser137 of DARPP-32 (CK1 site); experiment: DARPP-32 phospho-Ser137 immunoblot in neostriatal slices; type: cell-based, mouse; settings: for effect on basal phosphorylation of Ser137 / effect of pretreatment on the DHPG effect on Ser137 phosphorylation: U73122 10 μM 30 min, BAPTA/AM 20 μM; for effect of pretreatment on the DHPG effect on Ser137 phosphorylation: before DHPG 100 μM 2 min, L-AP3 100 μM 20 min, ZM241385 100 μM, cyclosporin A 5 μM 1 h
# Method: (§1) Neostriatal slices were prepared from male C57/BL6 mice (6–8 weeks old) in accordance with methods known in the art (Nishi, A. et al. 1997, J. Neurosci. 17:8147–8155). Slices were treated with a drug. After drug treatment, slices were immediately frozen in liquid nitrogen, and stored at −80° C. until assayed.
# (§2) Frozen slices were sonicated in hot homogenization buffer containing 1% SDS and 50 mM NaF, and samples were boiled for 10 minutes. SDS-PAGE sample buffer was then added and samples were boiled for 5 minutes. Samples (approximately 120 μg of total protein) were separated by SDS-PAGE (10% polyacrylamide) and then transferred to nitrocellulose. In most studies, immunoblots were first probed with anti-phospho-Ser137 DARPP-32 antibody. The blots were then stripped and probed with anti-phospho-Thr75 DARPP-32 antibody. Blots were stripped again and probed with anti-total DARPP-32 antibody. […] Chemiluminescence was detected by autoradiography and bands were quantified by analysis of scanned images using NIH IMAGE 1.52 software. Data were statistically analyzed by Student's t test in Microsoft EXCEL™ software as indicated.
# (§3) Neostriatal slices were prepared from male C57/BL6 mice (6–8 weeks old) as disclosed (22). Slices were treated with drugs as specified in the text and figure legends. After drug treatment, slices were immediately frozen in liquid nitrogen, and stored at −80° C. until assayed.
# (§4) Frozen slices were sonicated in hot homogenization buffer containing 1% SDS and 50 mM NaF, and samples were boiled for 10 min. SDS-PAGE sample buffer was then added and samples were boiled for 5 min. Samples (approximately 120 μg protein) were separated by SDS-PAGE (10% polyacrylamide) and transferred to nitrocellulose. Immunoblots were first probed with antiphospho-Ser-137 DARPP-32 antibody. The blots were stripped and probed with anti-phosphoThr-75 DARPP-32 antibody. Blots were stripped again and probed with anti-total DARPP-32 antibody. Antibody binding was detected by enhanced chemiluminescence (ECL) using X-ray film, and images were analyzed by laser scanning densitometry using NIH Image 1.52 software. Data were statistically analyzed by Student's t-test using Microsoft EXCEL™ software as indicated.
# [3] = tested on: Thr75 of DARPP-32 (Cdk5 site); experiment: DARPP-32 phospho-Thr75 immunoblot in neostriatal slices; type: cell-based, mouse; settings: for effect on basal phosphorylation of Thr75 / effect of pretreatment on the DHPG effect on Thr75 phosphorylation: U73122 10 μM 30 min, BAPTA/AM 20 μM; for effect of pretreatment on the DHPG effect on Thr75 phosphorylation: before DHPG 100 μM 2 min, L-AP3 100 μM 20 min, ZM241385 100 μM, cyclosporin A 5 μM 1 h
# Method: as §1, §2, §3, §4
# HA-tagged CK1ε = experiment: kinase activity of HA-CK1ε immunoprecipitated from transfected N2a cells, DARPP-32 as substrate; type: cell-based; settings: 30 min before DHPG 100 μM 2 min, CKI-7 100 μM, L-AP3 100 μM, U73122 10 μM, BAPTA/AM 20 μM, cyclosporin A 1 μM
# Method: Neuroblastoma N2a cells were cultured in DMEM containing 5% fetal bovine serum (FBS) to 50–60% confluency. Four micrograms of the expression plasmid for HA-CK1ε were transfected into N2a cells in 100 mm dishes using FuGENE™ 6. Twenty-four hours after transfection, cells were incubated in phosphate-buffered Krebs-Henseleit solution (Sigma) for 10 minutes at room temperature. Cells were then incubated with or without CKI inhibitor for 30 minutes before treating with the group I mGluR agonist (S)-3,5-DHPG (100 μM) for 2 minutes. Cells were then lysed in one ml of lysis buffer containing 1% Nonidet P-40 (NP-40), 150 mM NaCl, 0.1% SDS, 50 mM Tris (pH 8.0), 5 mM Na3VO4, 20 mM NaF, 20 mM β-glycerol-phosphate and protease inhibitors. Lysates were centrifuged at 10,000 g and supernatants were used for immunoprecipitation and kinase assay.
# For immunoprecipitation of CKI from N2a cells, lysates (1 mg of total protein) were pre-cleared with 5 μl of mouse IgG and 50 μl of protein A agarose for 30 minutes. Five μl of anti-HA antibody were added and samples were incubated for 1 hour at 4° C. Five μl of anti-mouse rabbit IgG and 50 μl of protein A agarose were then added for 45 minutes. Immuno-complexes were washed three times in lysis buffer, two times in kinase buffer (30 mM Hepes (pH 7.5), 7 mM MgCl2, 0.5 mM DTT). CKI assays were performed in a 30 μl assay volume with 2 μg of purified DARPP-32, 500 μM ATP and 5 μCi γ-^32P-ATP. Samples were incubated at 30° C. for 20 minutes, reactions were stopped by addition of SDS-sample buffer, and samples were boiled for 5 minutes. Samples were separated by SDS-PAGE (12% polyacrylamide). SDS-PAGE gels were dried and exposed to Kodak film for autoradiography. Bands were quantified by analysis using a Molecular Dynamics PhosphorImager.
# Neuroblastoma N2a cells were cultured to 50–60% confluence in DMEM containing 5% fetal bovine serum. Four μg of the expression plasmid for HA-CK1ε or myc-MM2-CK1ε was transfected into N2a cells in 100 mm dishes using FuGENE6™. Twenty-four hours after transfection, cells were incubated at room temperature in phosphate-buffered Kreb's-Henseleit solution (Sigma) for 10 min and then with or without inhibitors for 30 min before treating with (S)-3,5-DHPG, for 2 min. Cells were then lysed in 1 ml of radio-immunoprecipitation (RIPA) buffer containing 1% NP-40, 150 mM NaCl, 0.1% SDS, 50 mM Tris, pH 8.0, 5 mM Na3VO4, 20 mM NaF, 20 mM β-glycerol-phosphate and protease inhibitors. Lysates were centrifuged at 10,000 g, and supernatants were used for immunoprecipitation and kinase assay.
# For immunoprecipitation of CK1ε from N2a cells, lysates (1 mg of total protein) were precleared with 5 μl of mouse IgG (ICN) and 50 μl of protein A agarose for 30 min. Five μl (approximately 2 μg) of anti-HA or anti-myc antibody was added and samples were incubated for 1 h at 4° C. Five μl of anti-mouse rabbit IgG and 50 μl of protein A agarose were then added for 45 min. Immuno-complexes were washed 3 times in lysis buffer and 2 times in kinase buffer (30 mM Hepes, pH 7.5, 7 mM MgCl2, 0.5 mM DTT).
# (§5) CK1 assays were performed in a 30 μl assay volume with 2 μg of purified DARPP-32, 500 μM ATP and 5 μCi γ-^32P-ATP. Reactions were started by addition of the ATP. Samples were incubated at 30° C. for 10 min and reactions were stopped by addition of SDS-sample buffer and boiled for 5 min. Samples were separated by SDS-PAGE (12% polyacrylamide). SDS-PAGE gels were dried and exposed to Kodak film for autoradiography. Results were quantified using a Molecular Dynamics PHOSPHORIMAGER™. Immunoprecipitation and assay of Cdk5 were performed as disclosed (20).
# Cdk5 = Cdk5 kinase activity immunoprecipitated from neostriatal slices, histone H-1 as substrate; type: cell-based, mouse; settings: for effect of pretreatment on the effect of DHPG on Cdk5 kinase activity: CKI-7 dose-dependent, U73122 10 μM, BAPTA/AM 20 μM, cyclosporin A 5 μM
# Method: as §1
# For Cdk5 immunoprecipitation, striatal tissue slices (approximately 150 μg total protein) were lysed using a Dounce homogenizer and 1 ml of lysis buffer (150 mM NaCl, 20 mM Tris-HCl (pH 7.4), 1 mM EDTA, 0.5% NP-40, 5 mM NaF, 5 mM Na3PO4 and protease inhibitors). Lysates were centrifuged at 10,000 g for 10 minutes at 4° C. Supernatants were pre-cleared by adding rabbit IgG-conjugated agarose for 40 minutes at 4° C. Ten μl of Cdk5 antibody conjugated to agarose were added and samples were incubated for 1 hour at 4° C. with mixing. Agarose pellets were collected and washed three times with 1 ml of lysis buffer and two times with kinase assay buffer (50 mM Hepes (pH 7.5), 10 mM MgCl2, 1 mM DTT). Cdk5 kinase assays were performed in a 30-μl reaction mixtures with 2 μg Histone H-1, 500 μM ATP and 5 μCi of γ-^32P-ATP. Samples were incubated at 30° C. for 10 minutes, reactions were stopped by addition of SDS-sample buffer, and samples were boiled for 5 minutes. Samples were separated by SDS-PAGE and analyzed as disclosed above for CKI assays. Data were analyzed by Student's t-test in Microsoft Excel software as indicated, with significance defined as p<0.05.
# as §5
# [4] = 1 μM butyrolactone, 30 min before DHPG 2 min
# [5] = butyrolactone 5 μM and 10 μM, 30 min before DHPG 2 min
# [6] = slices treated with drug alone: DHPG 100 μM, ionomycin 2 μM
molecule,measurement,setting,value
4-OH-tamoxifen,IC50,ER,26 nM
O=C1CCCO1 [butyrolactone],effect on basal Ca2+ currents,[1],significant reduction; also recorded: reduced
same,effect on the enhancement of Ca2+ currents by DHPG,[1]; DHPG 100 μM,eliminated
same,effect on basal or DHPG-stimulated DARPP-32 phosphorylation at Ser137,[2]; [4],little effect
same,effect on basal and DHPG-stimulated phosphorylation of Ser137,[2]; [5],unaffected
same,effect on basal or DHPG-stimulated DARPP-32 phosphorylation at Thr75,[3]; [4],little effect
same,effect on basal and DHPG-stimulated phosphorylation of Thr75,[3]; [5],decreased in a dose-dependent manner
17β-estradiol,IC50,ER,5.6 nM
CC(=O)OCOC(=O)CN(CC(=O)OCOC(C)=O)c1ccccc1OCCOc1ccccc1N(CC(=O)OCOC(C)=O)CC(=O)OCOC(C)=O [BAPTA/AM],effect of pre-incubation on the ability of DHPG to increase CK1ε activity,HA-tagged CK1ε,abolished
same,effect on basal phosphorylation of Ser137,[2],did not change
same,effect of pretreatment on the DHPG effect on Ser137 phosphorylation,[2],abolished
same,effect of pretreatment on the effect of DHPG on Cdk5 kinase activity,Cdk5,abolished
same,effect on basal phosphorylation of Thr75,[3],did not change
same,effect of pretreatment on the DHPG effect on Thr75 phosphorylation,[3],abolished
C[C@H](CCC(=O)O)C[C@H](C)C[C@H](C)C(=O)/C=C(\O)[C@H](C)C[C@H](C)C/C=C/[C@@H](C)[C@@H](O)[C@@H](C)[C@@H](O)C[C@@H]1CC[C@@](C)([C@H]2CC[C@@](C)([C@@H](C)O)O2)O1 [ionomycin],effect on phosphorylation of Ser137 in DARPP-32,[2]; [6],increased phosphorylation
same,increase in Cdk5 kinase activity,Cdk5; ionomycin 2 μM for 2 min,2 fold
same,effect on phosphorylation of Thr75 in DARPP-32,[3]; [6],increased phosphorylation
N[C@@H](CP(=O)(O)O)C(=O)O [L-AP3],effect of pre-incubation on the ability of DHPG to increase CK1ε activity,HA-tagged CK1ε,blocked
same,effect of pretreatment on the DHPG effect on Ser137 phosphorylation,[2],blocked
same,effect of pretreatment on the DHPG effect on Thr75 phosphorylation,[3],blocked
COc1ccc2c(c1)CC[C@@H]1[C@@H]2CC[C@]2(C)[C@@H](NCCCCCCN3C(=O)C=CC3=O)CC[C@@H]12 [U73122],effect of pre-incubation on the ability of DHPG to increase CK1ε activity,HA-tagged CK1ε,abolished
same,effect on basal phosphorylation of Ser137,[2],did not change
same,effect of pretreatment on the DHPG effect on Ser137 phosphorylation,[2],abolished
same,effect of pretreatment on the effect of DHPG on Cdk5 kinase activity,Cdk5,abolished
same,effect on basal phosphorylation of Thr75,[3],did not change
same,effect of pretreatment on the DHPG effect on Thr75 phosphorylation,[3],abolished
Nc1nc(NCCc2ccc(O)cc2)nc2nc(-c3ccco3)nn12 [ZM241385],effect of pretreatment on the DHPG effect on Ser137 phosphorylation,[2],did not affect
same,effect of pretreatment on the DHPG effect on Thr75 phosphorylation,[3],did not affect
